Laboratory results from patent publication US10781185B2, “Heterocyclic compounds for the inhibition of PASK” (BioEnergenix LLC, priority 2009, dated 2020).

Experiments:
PASK [1] = target: PASK (UniProt # Q96RG2; human recombinant N-terminal GST tagged construct, residues 879-1323) (Homo sapiens (Human), UniProt Q96RG2); assay: PASK ATP Radiochemical Assay; format: biochemical; details: 33P-ATP radiochemical, Myelin Basic Protein substrate; read-out: IC50 Kinase Domain
Description: PASK ATP Radiochemical Assay
Test compounds in DMSO are then added and the mixture, followed by delivery of ^33P-ATP (specific activity 0.01 μCi/μl final) to initiate the reaction. […] The entire reaction mixture is washed through onto a P81 Phosphocellulose paper and washed three times for 10 minutes in 75 mM phosphoric acid and once in methanol prior to drying and scintillation counting.

PASK [2] = target: PASK (Homo sapiens (Human), UniProt Q96RG2); assay: PAS Kinase FRET Assay; format: biochemical; details: TR-FRET, Ulight-peptide substrate; read-out: IC50 Kinase Domain
Text: PAS Kinase FRET Assay The aim of the FRET assay is to determine the inhibition potential of test compounds on targeted kinase. This assay platform provides a homogenous screening method for measuring kinase activity by quantitating the amount of phospho-substrate in solution following a kinase reaction. In the presence of kinase and ATP, the Ulight-peptide is phosphorylated and captured by an anti-phospho-substrate antibody, which brings the Eu chelate donor and Ulight acceptor dyes into close proximity. […] The contents of the plate were and incubated at RT for 1 h. The reaction was stopped by adding 5 μl of stop solution to each test well followed by mixing and incubation at RT for 10 minutes. 5 μl of detection mix (detection antibody diluted in detection buffer) was added; the contents of the plate were mixed and then incubated in the dark for 1 hour at RT. […] The results were graphed to calculate the EC50. Titration of ATP at the EC50 concentration of kinase to determine ATP Km,app. was performed using the following method. […] The contents of the plate were and incubated at RT for 1 h. The reaction was stopped by adding 5 μl of stop solution to each test well followed by mixing and incubation at RT for 10 minutes. 5 μl of detection mix (detection antibody diluted in detection buffer) was added; the contents of the plate were mixed and then incubated in the dark for 1 hour at RT. […] The results were graphed to calculate the EC50 as the ATP Km,app. […] If compound is not soluble under this condition, it was diluted to 3 mM. Kinase reaction buffer was prepared containing 10 mM MgCl2, 50 mM HEPES, 1 mM EGTA, 0.01% TWEEN-20, 2 mM DTT. […] As a positive control, 2.5 μl of positive compound was added to assay wells, and 2.5 μl of DMSO to assay wells as vehicle control. Kinase solution was prepared in reaction buffer at 2× final assay concentration. Kinase solution (5 μl) was added to each well of the assay plate. The substrate and ATP solution was prepared in kinase reaction buffer at 4× final assay concentration. The kinase reaction was started by adding 2.5 μl of substrate+ATP mix solution to each well of the assay plate. The plate is mixed on a plate shaker; then covered and allowed to react for 2 hours in the dark at 25° C. without shaking. The reaction was stopped by adding 5 μl of stop solution to each test well followed by mixing and incubation at RT for 10 minutes in the dark. 5 μl of detection mix (detection antibody diluted in detection buffer) was added; the contents of the plate were mixed and then incubated in the dark for 1 hour at RT.

Sequence of PASK (Homo sapiens (Human), UniProt Q96RG2) (Q96RG2 999-1251): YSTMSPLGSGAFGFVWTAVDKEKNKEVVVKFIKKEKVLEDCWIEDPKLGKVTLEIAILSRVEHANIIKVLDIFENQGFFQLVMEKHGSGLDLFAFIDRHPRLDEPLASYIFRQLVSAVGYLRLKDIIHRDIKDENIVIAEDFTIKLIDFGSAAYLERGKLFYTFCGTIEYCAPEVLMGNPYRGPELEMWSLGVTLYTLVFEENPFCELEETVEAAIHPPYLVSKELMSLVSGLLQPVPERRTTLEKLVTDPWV
Sequence of PASK (UniProt # Q96RG2; human recombinant N-terminal GST tagged construct, residues 879-1323) (Homo sapiens (Human), UniProt Q96RG2) (Q96RG2 879-1323, change not shown): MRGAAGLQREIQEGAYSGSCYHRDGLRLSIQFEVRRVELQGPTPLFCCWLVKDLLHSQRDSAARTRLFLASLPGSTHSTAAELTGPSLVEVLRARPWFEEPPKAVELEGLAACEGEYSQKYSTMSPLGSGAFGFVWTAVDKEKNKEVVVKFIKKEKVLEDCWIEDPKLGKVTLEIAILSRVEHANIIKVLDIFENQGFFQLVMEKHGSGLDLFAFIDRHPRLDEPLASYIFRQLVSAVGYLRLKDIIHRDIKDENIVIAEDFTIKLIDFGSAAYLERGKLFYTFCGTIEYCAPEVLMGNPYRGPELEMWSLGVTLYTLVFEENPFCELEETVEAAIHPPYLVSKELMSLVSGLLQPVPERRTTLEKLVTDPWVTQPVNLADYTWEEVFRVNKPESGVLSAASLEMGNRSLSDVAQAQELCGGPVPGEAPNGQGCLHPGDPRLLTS

`O=C(O)c1ccc2nc(-c3ccccc3)c(N3CCN(c4ccc(C(F)(F)F)cc4)CC3)nc2c1` [Example 1, 2-Phenyl-3-(4-(4-(trifluoromethyl)phenyl)piperazin-1-yl)quinoxaline-6-carboxylic acid] was tested. Which IC50 (PASK [1]) did it give?
The IC50 was under 10 µM.

`O=C(O)c1ccc2nc(-c3ccccc3)c(N3CCN(c4ccccn4)CC3)nc2c1` [Example 2, 2-Phenyl-3-(4-(pyridin-2-yl)piperazin-1-yl)quinoxaline-6-carboxylic acid] was tested. Which IC50 (PASK [1]) did it give?
The IC50 was under 10 µM.

How did the IC50 (PASK [1]) turn out when `O=C(O)c1ccc2nc(-c3ccccc3)c(N3CCN(c4cccc(Cl)c4)CC3)nc2c1` [Example 3, 3-(4-(3-Chlorophenyl)piperazin-1-yl)-2-phenylquinoxaline-6-carboxylic acid] was run?
Its IC50 is under 10 µM.

With `CN1CCN(c2nc3cc(C(=O)O)ccc3nc2-c2ccccc2)CC1` [Example 4, 3-(4-Methylpiperazin-1-yl)-2-phenylquinoxaline-6-carboxylic acid] as the compound, how does the IC50 (PASK [1]) read?
Its IC50 is over 10 µM.

How did the IC50 (PASK [1]) turn out when `O=C(O)c1ccc2nc(-c3ccccc3)c(N3CCN(c4ccccc4)CC3)nc2c1` [Example 6, 2-Phenyl-3-(4-phenylpiperazin-1-yl)quinoxaline-6-carboxylic acid] was run?
The IC50 was under 10 µM.

`O=C(O)c1ccc2nc(-c3ccccc3)c(N3CCC(c4ccc(C(F)(F)F)cc4)CC3)nc2c1` [Example 7, 2-Phenyl-3-(4-(4-(trifluoromethyl)phenyl)piperidin-1-yl)quinoxaline-6-carboxylic acid] was tested. Which IC50 (PASK [1]) did it give?
The IC50 was under 10 µM.

`O=C(O)c1ccc2nc(-c3ccccc3)c(N3CCN(c4ccc(Cl)cc4)CC3)nc2c1` [Example 8, 3-(4-(4-Chlorophenyl)piperazin-1-yl)-2-phenylquinoxaline-6-carboxylic acid] was tested. Which IC50 (PASK [1]) did it give?
The IC50 was under 10 µM.

`COc1ccc(N2CCN(c3nc4cc(C(=O)O)ccc4nc3-c3ccccc3)CC2)cc1` [Example 9, 3-(4-(4-Methoxyphenyl)piperazin-1-yl)-2-phenylquinoxaline-6-carboxylic acid] was tested. Which IC50 (PASK [1]) did it give?
The IC50 was under 10 µM.

`O=C(O)c1ccc2nc(-c3ccccc3)c(N3CCC(c4cccc(Cl)c4)CC3)nc2c1` [Example 10, 3-(4-(3-Chlorophenyl)piperidin-1-yl)-2-phenylquinoxaline-6-carboxylic acid] was tested. Which IC50 (PASK [1]) did it give?
Its IC50 is under 10 µM.

Which IC50 (PASK [1]) does the source give for `O=C(O)c1ccc2nc(-c3ccccc3)c(N3CCCCC3)nc2c1` [Example 12, 2-Phenyl-3-(piperidin-1-yl)quinoxaline-6-carboxylic acid] here?
The IC50 was under 10 µM.

For `O=C(O)c1ccc2nc(-c3ccccc3)c(N3CCC(c4ccccc4)CC3)nc2c1` [Example 13, 2-Phenyl-3-(4-phenylpiperidin-1-yl)quinoxaline-6-carboxylic acid], which IC50 (PASK [1]) is on record?
Its IC50 is under 10 µM.

How did the IC50 (PASK [1]) turn out when `O=C(O)c1ccc2nc(-c3ccccc3)c(N3CCCCCC3)nc2c1` [Example 14, 3-(Azepan-1-yl)-2-phenylquinoxaline-6-carboxylic acid] was run?
Its IC50 is under 10 µM.

Which IC50 (PASK [1]) does the source give for `O=C(O)c1ccc2nc(-c3ccccc3)c(N3CCC(c4ccc(Cl)cc4)CC3)nc2c1` [Example 15, 3-(4-(4-Chlorophenyl)piperidin-1-yl)-2-phenylquinoxaline-6-carboxylic acid] here?
Its IC50 is under 10 µM.

With `O=C(O)c1ccc2nc(-c3ccccc3)c(N3CCCc4ccccc43)nc2c1` [Example 40, 3-(3,4-Dihydroquinolin-1(2H)-yl)-2-phenylquinoxaline-6-carboxylic acid] as the compound, how does the IC50 (PASK [1]) read?
The IC50 was under 10 µM.

And the IC50 (PASK [2])?
Its IC50 is at most 10 µM.

With `CC(C)N(C)c1nc2cc(C(=O)O)ccc2nc1-c1ccccc1` [Example 43, 3-(Isopropyl(methyl)amino)-2-phenylquinoxaline-6-carboxylic acid] as the compound, how does the IC50 (PASK [1]) read?
Its IC50 is under 10 µM.

And the IC50 (PASK [2])?
The IC50 was at most 10 µM.

For `CN(c1nc2cc(C(=O)O)ccc2nc1-c1ccccc1)C1CC1` [Example 46, 3-(Cyclopropyl(methyl)amino)-2-phenylquinoxaline-6-carboxylic acid], which IC50 (PASK [1]) is on record?
The IC50 was under 10 µM.

What about the IC50 (PASK [2]) of the same compound?
Its IC50 is at most 10 µM.

Which results are given for `COC[C@H]1CCCN1c1nc2cc(C(=O)O)ccc2nc1-c1ccccc1` [Example 51, (R)-3-(2-(Methoxymethyl)pyrrolidin-1-yl)-2-phenylquinoxaline-6-carboxylic acid]?
IC50 (PASK [1]): < 10 µM; IC50 (PASK [2]): ≤ 10 µM

`O=C(O)c1ccc2nc(-c3ccccc3)c(N3CCC[C@@H]3CO)nc2c1` [Example 52, (R)-3-(2-(Hydroxymethyl)pyrrolidin-1-yl)-2-phenylquinoxaline-6-carboxylic acid] was tested. Which IC50 (PASK [1]) did it give?
Its IC50 is under 10 µM.

What about the IC50 (PASK [2]) of the same compound?
Its IC50 is at most 10 µM.

For `CC(C)N(C)c1nc2cc(C(=O)O)ccc2nc1-c1ccc(F)cc1` [Example 57, 2-(4-Fluorophenyl)-3-(isopropyl(methyl)amino)quinoxaline-6-carboxylic acid], which IC50 (PASK [1]) is on record?
The IC50 was under 10 µM.

What about the IC50 (PASK [2]) of the same compound?
Its IC50 is at most 10 µM.

Which results are given for `COc1ccc(-c2nc3ccc(C(=O)O)cc3nc2N(C)C(C)C)cc1` [Example 58, 3-(Isopropyl(methyl)amino)-2-(4-methoxyphenyl)quinoxaline-6-carboxylic acid]?
IC50 (PASK [1]): < 10 µM; IC50 (PASK [2]): ≤ 10 µM

With `CC(C)N(C)c1nc2cc(C(=O)O)ccc2nc1-c1ccc(F)c(F)c1` [Example 63, 2-(3,4-Difluorophenyl)-3-(isopropyl(methyl)amino)quinoxaline-6-carboxylic acid] as the compound, how does the IC50 (PASK [1]) read?
The IC50 was under 10 µM.

What about the IC50 (PASK [2]) of the same compound?
The IC50 was at most 10 µM.

Which results are given for `CC(C)N(C)c1nc2cc(C(=O)O)ccc2nc1-c1ccc(Cl)cc1` [Example 64, 2-(4-Chlorophenyl)-3-(isopropyl(methyl)amino)quinoxaline-6-carboxylic acid]?
IC50 (PASK [1]): < 10 µM; IC50 (PASK [2]): ≤ 10 µM

With `O=C(O)c1ccc2nc(-c3ccccc3)c(N3CCC[C@@H]3C(F)(F)F)nc2c1` [Example 65, (R)-2-Phenyl-3-(2-(trifluoromethyl)pyrrolidin-1-yl)quinoxaline-6-carboxylic acid] as the compound, how does the IC50 (PASK [1]) read?
Its IC50 is under 10 µM.

And the IC50 (PASK [2])?
The IC50 was at most 10 µM.

For `COc1ccc2c(c1)CCCN2c1nc2cc(C(=O)O)ccc2nc1-c1ccccc1` [Example 66, 3-(6-Methoxy-3,4-dihydroquinolin-1(2H)-yl)-2-phenylquinoxaline-6-carboxylic acid], which IC50 (PASK [1]) is on record?
The IC50 was under 10 µM.

And the IC50 (PASK [2])?
Its IC50 is at most 10 µM.

Which results are given for `O=C(O)c1ccc2nc(-c3ccc(F)cc3)c(N3CCCCC3)nc2c1` [Example 75, 2-(4-Fluorophenyl)-3-(piperidin-1-yl)quinoxaline-6-carboxylic acid]?
IC50 (PASK [1]): < 10 µM; IC50 (PASK [2]): ≤ 10 µM

For `O=C(O)c1ccc2nc(-c3ccc(F)cc3)c(N3CCCCCC3)nc2c1` [Example 76, 3-(Azepan-1-yl)-2-(4-fluorophenyl)quinoxaline-6-carboxylic acid], which IC50 (PASK [1]) is on record?
Its IC50 is under 10 µM.

What about the IC50 (PASK [2]) of the same compound?
The IC50 was at most 10 µM.

For `O=C1CN(c2nc3cc(C(=O)O)ccc3nc2-c2ccc(F)cc2)CCN1` [Example 103, 2-(4-Fluorophenyl)-3-(3-oxopiperazin-1-yl)quinoxaline-6-carboxylic acid], which IC50 (PASK [2]) is on record?
Its IC50 is at most 10 µM.

Which IC50 (PASK [2]) does the source give for `CN(c1nc2cc(C(=O)O)ccc2nc1-c1ccc(F)cc1)C1CCOCC1` [Example 105, 2-(4-Fluorophenyl)-3-(methyl(tetrahydro-2H-pyran-4-yl)amino)quinoxaline-6-carboxylic acid] here?
The IC50 was at most 10 µM.

How did the IC50 (PASK [2]) turn out when `CN(c1nc2cc(C(=O)O)ccc2nc1-c1ccc(F)cc1)C1CCCC1` [Example 106, 3-(Cyclopentyl(methyl)amino)-2-(4-fluorophenyl)quinoxaline-6-carboxylic acid] was run?
The IC50 was at most 10 µM.

With `Cc1ccc(-c2nc3ccc(C(=O)O)cc3nc2N(C)C(C)C)s1` [Example 107, 3-(Isopropyl(methyl)amino)-2-(5-methylthiophen-2-yl)quinoxaline-6-carboxylic acid] as the compound, how does the IC50 (PASK [2]) read?
Its IC50 is at most 10 µM.

For `CC(C)N(C)c1nc2cc(C(=O)O)ccc2nc1-c1cccs1` [Example 108, 3-(Isopropyl(methyl)amino)-2-(thiophen-2-yl)quinoxaline-6-carboxylic acid], which IC50 (PASK [2]) is on record?
The IC50 was at most 10 µM.

Which IC50 (PASK [2]) does the source give for `CC(=O)N(C)C1CCN(c2nc3cc(C(=O)O)ccc3nc2-c2ccc(F)cc2)CC1` [Example 111, 2-(4-Fluorophenyl)-3-(4-(N-methylacetamido)piperidin-1-yl)quinoxaline-6-carboxylic acid] here?
The IC50 was at most 10 µM.

How did the IC50 (PASK [2]) turn out when `CN1CCN(c2nc3cc(C(=O)O)ccc3nc2-c2ccc(F)cc2)CC1=O` [Example 112, 2-(4-Fluorophenyl)-3-(4-methyl-3-oxopiperazin-1-yl)quinoxaline-6-carboxylic acid] was run?
The IC50 was at most 10 µM.
